Reference: US20210214385A1, “INHIBITORS OF D-AMINO ACID OXIDASE AND USES THEREOF” (SyneuRx International (Taiwan) Corp., priority 2018, published 2021)
pIC50: −log10 of the molar value.

Tests used:
in vivo = conditions: C57BL/6J, mouse, po
MK-801 treated mice = experiment: Pre-pulse inhibition in MK-801 treated mice; assay type: in vivo; conditions: 30 mg/kg oral, MK-801 0.3 mg/kg i.p., male mice
Experimental: C57BL/6J male mice were group housed under the same condition as described in Example 1. Mice were randomly assigned into three groups, Group 1: vehicle control, Group 2: MK-801, Group 3: Cpd 24 (30 mg/kg)+MK-801. Mice in Group 2-3 received an acute intraperitoneal (i.p.) injection of MK-801 (Sigma-Aldrich USA), a NMDA receptor antagonist, dissolved in normal saline, at 0.3 mg/kg 20 minutes prior to the pre-pulse inhibition test. Each mouse in Group 1-2 and Group 3 received, respectively, an acute oral administration of 65% PEG400 in ddH2O and compound 24 at 30 mg/kg (dissolved with 65% PEG400 in ddH2O) 20 minutes prior to the MK-801 administration.
Pre-pulse inhibition, using SR-LAB startle apparatus (San Diego Instruments, San Diego, Calif., USA), was used to determine the efficacy of compound 24 on attenuating the MK-801 induced deficit of sensorimotor gating function in mice. Under 65 dB background noise, each session was composed of 5-minutes accumulation period followed by 64 trials in four blocks. The pulse alone (PA) trial was a 40 ms, 120 dB white noise burst. In the prepulse (pp)+pulse trials, a 20 ms white noise prepulse stimuli of 71 dB (pp6), 75 dB (pp10), and 83 dB (pp18) were presented 100 ms before a 40 ms 120 dB pulse. The non-stimulus (NS) trials presented the background noise only. The initial and the last blocks were composed of six PA trials, respectively. Two middle blocks consisted of PA, pp+pulse, and NS trials. These trials were presented pseudo-randomly and separated by intertribal intervals of 15 seconds on average (varying between 10 to 20 s). The percentage of prepulse inhibition was evaluated by the following formula: % PPI=100× [(PA score)−(pp-P score)]/(PA score), where the PA score was the average of the PA value in the middle blocks.

[1] = Log P, n-octanol/water partition coefficient, HPLC; assay type: physicochemical
Experimental: The sample compounds tested in the log P experiments included enriched tannic acid (prepared by the enrichment method 10 of U.S. Ser. No. 10/105,378), compounds 21, 24, 27, 46, and 56. First, n-Octanol and water was saturated with each other to achieve partition equilibrium and the two phases were separated for further use. Sample compounds were dissolved in water and n-octanol phase, respectively. Both phases were mixed by vertical rotation movement. After the water and n-octal phases reached equilibrium state, both phases were analyzed to determine the concentrations of the sample compounds for the determination of log P values. All samples were performed in a Shimadzu CBM-20A FfPLC system. The chromatographic separation was carried out on a 5 μm, Kinetex C18 100 Å LC column (100×4.6 mm). The mobile phase was 0.1% formic acid in water and acetonitrile/Methanol set as gradient. Flow rate used was 1.2 mL/min. Column was at room temperature 20±5° C.
The partition coefficient abbreviated P is calculated based on the concentration in n-octanol divided by the concentration in water. The formula of log P is shown below: […]

[2] = biological target: human D-amino acid oxidase (hDAAO) (Homo sapiens, UniProt P14920); experiment: In vitro measurement of human D-amino acid oxidase (hDAAO) activity, D-Serine substrate, Amplex Red fluorescence; assay type: biochemical
[3] = Concentration in mouse brain after i.p. administration, HPLC-MS after tannase hydrolysis into gallic acid; assay type: in vivo, mice
Experimental: The objective of this experiment was to compare the concentration of Compound 24 and enriched tannic acid in mouse brain after intraperitoneal (i.p.) administration. The enriched tannic acid was prepared by the enrichment method 10 of U.S. Ser. No. 10/105,378. C57BL/6J mice at 14 weeks of age were divided into two groups with 3 mice each. The mice in group I and II were, respectively, i.p. injected with Compound 24 at 30 mg/kg and enriched tannic acid at 15 mg/kg once every two days for three months. The brain sample was collected from each animal at 24 hours after the final i.p. administration and immediately frozen and stored at −70° C. until further use.
The amounts of Compound 24 and enriched tannic acid in mice brain were analyzed by high performance liquid chromatography-mass spectrometry (HPLC-MS) after enzymatic hydrolysis into gallic acid. Each frozen brain sample was homogenized with 4-fold volume of deionized water (ddH2O) using a handheld tissue homogenizer (BT Lab Systems). […]
Chromatographic analysis was performed using a Phenomenex Kinetex C8 column (150×4.6 mm, 5 μm). […] Quantitation was done using the selected-ion monitoring chromatogram (SIM) mode to monitor the precursor ion of m/z 169 for gallic acid and m/z 137 for 4-hydroxybenzoic acid as an internal standard. […]

Sequence of human D-amino acid oxidase (hDAAO) (P14920 whole entry): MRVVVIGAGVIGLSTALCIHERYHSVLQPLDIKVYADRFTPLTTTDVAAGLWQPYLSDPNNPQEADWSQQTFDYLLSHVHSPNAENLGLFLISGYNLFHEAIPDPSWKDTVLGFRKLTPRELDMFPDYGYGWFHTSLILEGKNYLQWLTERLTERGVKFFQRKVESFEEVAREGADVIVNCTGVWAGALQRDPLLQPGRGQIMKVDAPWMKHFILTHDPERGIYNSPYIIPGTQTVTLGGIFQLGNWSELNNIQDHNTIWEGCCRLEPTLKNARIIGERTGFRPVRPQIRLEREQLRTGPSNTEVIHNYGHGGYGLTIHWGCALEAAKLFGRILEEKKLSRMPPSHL

## O=C(OC[C@H]1O[C@H](OC(=O)c2cc(O)c(O)c(OC(=O)c3cc(O)c(O)c(OC(=O)c4cc(O)c(O)c(O)c4)c3)c2)[C@H](OC(=O)c2cc(O)c(O)c(OC(=O)c3cc(O)c(O)c(OC(=O)c4cc(O)c(O)c(O)c4)c3)c2)[C@@H](OC(=O)c2cc(O)c(O)c(OC(=O)c3cc(O)c(O)c(OC(=O)c4cc(O)c(O)c(O)c4)c3)c2)[C@@H]1OC(=O)c1cc(O)c(O)c(OC(=O)c2cc(O)c(O)c(OC(=O)c3cc(O)c(O)c(O)c3)c2)c1)c1cc(O)c(O)c(OC(=O)c2cc(O)c(O)c(OC(=O)c3cc(O)c(O)c(O)c3)c2)c1 [Compound 24, (2R,3R,4S,5R,6R)-6-(((3-((3,4-dihydroxy-5-((3,4,5-trihydroxybenzoyl)oxy)benzoyl)oxy)-4,5-dihydroxybenzoyl)oxy)methyl)tetrahydro-2H-pyran-2,3,4,5-tetrayl tetrakis(3-((3,4-dihydroxy-5-((3,4,5-trihydroxybenzoyl)oxy)benzoyl)oxy)-4,5-dihydroxybenzoate)]
In vivo
  MTD at 7 day: 4500 mg/kg
MK-801 treated mice; 71 dB pre-pulse intensity
  pre-pulse inhibition percentage: moderately increased the inhibition percentage
MK-801 treated mice; 75 dB pre-pulse intensity
  MK-801 induced pre-pulse inhibition deficit: significantly improved
MK-801 treated mice; 83 dB pre-pulse intensity
  pre-pulse inhibition percentage: moderately increased the inhibition percentage
[1]
  logP: 0.58
[2]
  pIC50: 7.89
[3]; 30 mg/kg i.p. once every two days for three months, 24 hours after final dose
  Concentration (amount per g brain tissue): 2714.19 ng/g
[3]; compound 24 at 30 mg/kg vs enriched tannic acid at 15 mg/kg i.p.
  brain concentration relative to enriched tannic acid: more than 9 times
